Assay results published in patent US8772499B2, “TRPV3 modulators” (AbbVie Inc., priority 2011, dated 2014).
Like-named read-outs stand apart in the source and are kept apart here.

Columns and labels:
[1] = In vitro human microsomal stability assay; type: in vitro ADME
Procedure, shortened: (§1)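 Test compounds were incubated at 37° C. with Sprague-Dawley rat liver microsomes or with human liver microsomes. NADPH was supplied as cofactor and was also added to the time-zero plates.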

human TRPV3 = molecular target: T1, human TRPV3 (Homo sapiens, UniProt Q8NET8); assay: In vitro antagonism of recombinant human TRPV3 activation (FLIPR Tetra calcium assay); type: cell-based; conditions: HEK293 cells stably expressing human TRPV3, agonist 2-APB at 80 μM
T1 construct: expressed in transfected cells
T1 sequence (Q8NET8 1-790): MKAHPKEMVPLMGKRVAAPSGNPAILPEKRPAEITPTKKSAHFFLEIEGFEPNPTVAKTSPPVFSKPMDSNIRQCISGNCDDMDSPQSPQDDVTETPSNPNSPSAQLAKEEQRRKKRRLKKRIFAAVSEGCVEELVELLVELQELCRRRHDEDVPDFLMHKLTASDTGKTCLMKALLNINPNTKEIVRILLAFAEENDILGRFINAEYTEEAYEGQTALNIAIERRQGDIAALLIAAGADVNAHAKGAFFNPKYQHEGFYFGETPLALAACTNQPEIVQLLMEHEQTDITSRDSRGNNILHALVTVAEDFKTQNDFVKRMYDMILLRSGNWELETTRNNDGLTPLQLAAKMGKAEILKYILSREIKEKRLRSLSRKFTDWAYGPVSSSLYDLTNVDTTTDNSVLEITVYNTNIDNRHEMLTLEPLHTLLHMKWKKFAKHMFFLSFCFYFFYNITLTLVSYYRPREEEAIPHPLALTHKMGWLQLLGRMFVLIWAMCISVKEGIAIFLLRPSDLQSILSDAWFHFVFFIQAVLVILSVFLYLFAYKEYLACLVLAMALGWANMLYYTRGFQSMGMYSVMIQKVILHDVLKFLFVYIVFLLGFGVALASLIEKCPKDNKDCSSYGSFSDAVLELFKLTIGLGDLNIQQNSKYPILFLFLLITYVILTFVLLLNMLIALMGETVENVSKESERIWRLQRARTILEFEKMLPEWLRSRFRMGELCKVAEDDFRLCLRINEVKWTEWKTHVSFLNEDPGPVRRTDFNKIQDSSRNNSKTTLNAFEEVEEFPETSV
Procedure, shortened: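 HEK293 cells stably expressing human TRPV3, loaded with Calcium-4 dye for 90–120 min, received compound in DPBS, then 80 μM 2-APB (EC80) 3 min later. Max-minus-min fluorescence expressed as % of 2-APB response without antagonist; IC50 values mostly averages of n≥2 runs.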

[2] = In vitro rat microsomal stability assay; type: in vitro ADME, rat (Sprague-Dawley)
Procedure, shortened: as §1

[3] = human, microsomes, 0.5 h, 0.5 μM, pH 7.4
[4] = actual measured value shown parenthetically, in most cases average of at least two runs, read-out: IC50
[5] = reported range, read-out: IC50 (range class)
[6] = Sprague-Dawley, rat, microsomes, 0.5 h, 0.5 μM, pH 7.4
[7] = human liver microsomes, 0.5 μM substrate, 0.25 mg/mL microsomal protein, pH 7.4, 37° C., NADPH, 30 minutes
[8] = rat liver microsomes (Sprague-Dawley), 0.5 μM substrate, 0.25 mg/mL microsomal protein, pH 7.4, 37° C., NADPH, 30 minutes

| Structure (SMILES) | HUMAN MICROSOMAL STABILITY (% REMAINING AFTER 30 MINUTES) [1, 3] [%] | IC50 (human TRPV3; [4]) [µM] | IC50 (human TRPV3; [5]) [µM] | RAT MICROSOMAL STABILITY (% REMAINING AFTER 30 MINUTES) [2, 6] [%] | HUMAN MICROSOMAL STABILITY (% REMAINING AFTER 30 MINUTES) [1, 7] [%] | RAT MICROSOMAL STABILITY (% REMAINING AFTER 30 MINUTES) [2, 8] [%] | HUMAN […] (% REMAINING AFTER 30 MINUTES) [1, 7] [%] | RAT […] (% REMAINING AFTER 30 MINUTES) [2, 8] [%] |
| --- | --- | --- | --- | --- | --- | --- | --- | --- |
| OC(C1CCc2cccnc21)C1(c2ccccc2OC(F)(F)F)CCC1 (stereo not drawn) [Example 194, (syn)-6,7-dihydro-5H-cyclopenta[b]pyridin-7-yl{1-[2-(trifluoromethoxy)-phenyl]cyclobutyl}methanol] | 0.08 | > 20 | > 20 | <0.01 | – | – | – | – |
| OC(c1ccccn1)C1(c2cccc(OC(F)(F)F)c2)CCC1 (centres unmarked) [Example 11, pyridin-2-yl{1-[3-(trifluoromethoxy)phenyl]cyclobutyl}methanol] | 0.72 | 0.4 | – | 0.80 | – | – | – | – |
| O[C@H](c1ccccn1)C1(c2ccc(C(F)(F)F)c(F)c2)CCC1 [Example 29, (S)-{1-[3-fluoro-4-(trifluoromethyl)phenyl]cyclobutyl}(pyridin-2-yl)-methanol] | 5.3 | 2.54 | – | 45 | – | – | – | – |
| CN1CCC(c2ccc(Cl)c(Cl)c2)(C(O)c2ccccn2)CC1 (centres unmarked) [Example 141, [4-(3,4-dichlorophenyl)-1-methylpiperidin-4-yl](pyridin-2-yl)methanol] | – | > 20 | > 20 | – | >85 | 59 | – | – |
| OC(c1ccccn1)C1(c2ccc(Cl)c(Cl)c2)CCCO1 (single isomer, unassigned) [Example 98] | 7.6 | 0.11 | – | 0.020 | – | – | – | – |
| O[C@H](c1ccccn1)C1(c2ccc(C(F)(F)F)cc2F)CCC1 [Example 27, (S)-{1-[2-fluoro-4-(trifluoromethyl)phenyl]cyclobutyl}(pyridin-2-yl)-methanol] | 13 | 1.4 | – | 15 | – | – | – | – |
| OC(c1ccccn1)C1(c2cccc(Cl)c2)CCCO1 (single isomer, unassigned) [Example 104, (anti)-[2-(3-chlorophenyl)tetrahydrofuran-2-yl](pyridin-2-yl)methanol] | 15 | 0.28 | – | 0.42 | – | – | – | – |
| OC(c1ccccn1)C1(c2ccccc2F)CCCO1 (centres unmarked) [Example 102] | – | > 20 | > 20 | – | 45 | 0.55 | – | – |
| OC(c1ccccn1)C1(c2cccc(OC(F)(F)F)c2)CCCO1 (single isomer, unassigned) [Example 92, (anti)-pyridin-2-yl{2-[3-(trifluoromethoxy)phenyl]tetrahydrofuran-2-yl}methanol] | 2.7 | 0.1 | – | 0.23 | – | – | – | – |
| O[C@@H](c1ncccn1)C1(c2ccc(C(F)(F)F)cc2)CCC1 [Example 42, (R)-pyrimidin-2-yl{1-[4-(trifluoromethyl)phenyl]cyclobutyl}methanol] | 50 | > 10 | – | 40 | – | – | – | – |
| O[C@@H](c1ccccn1)[C@]1(c2cc(C(F)(F)F)ccn2)C[C@H](O)C1 (relative stereo) [Example 290, cis-3-[(R)-hydroxy(pyridin-2-yl)methyl]-3-[4-(trifluoromethyl)pyridin-2-yl]cyclobutanol] | – | – | > 20 | – | – | – | >85 | 71 |

Further lines, with some results ahead:

| HUMAN MICROSOMAL STABILITY (% REMAINING AFTER 30 MINUTES) [1, 3] [%] | IC50 (human TRPV3; [4]) [µM] | IC50 (human TRPV3; [5]) [µM] | RAT MICROSOMAL STABILITY (% REMAINING AFTER 30 MINUTES) [2, 6] [%] | Structure (SMILES) | HUMAN MICROSOMAL STABILITY (% REMAINING AFTER 30 MINUTES) [1, 7] [%] | RAT MICROSOMAL STABILITY (% REMAINING AFTER 30 MINUTES) [2, 8] [%] | HUMAN […] (% REMAINING AFTER 30 MINUTES) [1, 7] [%] | RAT […] (% REMAINING AFTER 30 MINUTES) [2, 8] [%] |
| --- | --- | --- | --- | --- | --- | --- | --- | --- |
| >85 | > 20 | > 20 | >85 | OC1CC(c2ccc(C(F)(F)F)cc2)([C@@H](O)c2ccccn2)C1 (mixture of isomers) [Example 199, 3-[(R)-hydroxy(pyridin-2-yl)methyl]-3-[4-(trifluoromethyl)phenyl]-cyclobutanol] | – | – | – | – |
| 31 | 2.93 | – | 0.23 | OC(c1ccccn1)C1(c2cccc(C(F)(F)F)c2)CCCO1 (single isomer, unassigned) [Example 107, (syn)-pyridin-2-yl{2-[3-(trifluoromethyl)phenyl]tetrahydrofuran-2-yl}-methanol] | – | – | – | – |
| 0.16 | > 20 | > 20 | <0.01 | OC(C1CCCc2cccnc21)C1(c2cccc(OC(F)(F)F)c2)CCC1 (stereo not drawn) [Example 188, (syn)-5,6,7,8-tetrahydroquinolin-8-yl{1-[3-(trifluoromethoxy)phenyl]-cyclobutyl}methanol] | – | – | – | – |
| 78 | > 20 | > 20 | 69 | O=C1CC(c2cc(C(F)(F)F)ccn2)(C(O)c2ccccn2)C1 (centres unmarked) [Example 293, 3-[hydroxy(pyridin-2-yl)methyl]-3-[4-(trifluoromethyl)pyridin-2-yl]-cyclobutanone] | – | – | – | – |
| 70 | 11 | – | 53 | O=C1CC(c2ccc(F)c(Cl)c2)(C(O)c2ccccn2)C1 (centres unmarked) [Example 258, 3-(3-chloro-4-fluorophenyl)-3-[hydroxy(pyridin-2-yl)methyl]cyclobutanone] | – | – | – | – |
| >85 | 0.82 | 1.1 to 5 | 50 | OC1CC(c2ccc(OC(F)(F)F)cc2)(C(O)c2ccccn2)C1 (single isomer, unassigned) [Example 131] | – | – | – | – |
| 76 | 0.47 | – | 73 | O[C@H](c1ccccn1)[C@]1(c2cccc(C(F)(F)F)c2)C[C@H](O)C1 [Example 259, cis-3-[(S)-hydroxy(pyridin-2-yl)methyl]-3-[3-(trifluoromethyl)phenyl]-cyclobutanol] | – | – | – | – |
| >85 | 0.25 | – | 44 | OC1CC(c2cncc(C(F)(F)F)c2)(C(O)c2ccccn2)C1 [Example 304, trans-3-[(S)-hydroxy(pyridin-2-yl)methyl]-3-[5-(trifluoromethyl)pyridin-3-yl]cyclobutanol] | – | – | – | – |
| >85 | 0.65 | – | 67 | N[C@@H]1CCC[C@H]1[C@@H](O)C1(c2ccc(Cl)c(Cl)c2)CCC1 [Example 220, (R)-[(1R,2R)-2-aminocyclopentyl][1-(3,4-dichlorophenyl)cyclobutyl]-methanol] | – | – | – | – |
| 81 | > 20 | > 20 | >85 | OC1CC(c2ccc(Cl)c(Cl)c2)(C(O)c2ncccn2)C1 (single isomer, unassigned) [Example 313] | – | – | – | – |
| 26 | > 20 | > 20 | <0.01 | OC(C1CCc2cccnc21)C1(c2ccc(C(F)(F)F)cc2)CCC1 (stereo not drawn) [Example 174, (syn)-6,7-dihydro-5H-cyclopenta[b]pyridin-7-yl{1-[4-(trifluoromethyl)-phenyl]cyclobutyl}methanol] | – | – | – | – |
| >85 | > 20 | > 20 | >85 | O=C1CC(c2ccnc(C(F)(F)F)c2)([C@H](O)c2ccccn2)C1 [Example 299, 3-[(S)-hydroxy(pyridin-2-yl)methyl]-3-[2-(trifluoromethyl)pyridin-4-yl]-cyclobutanone] | – | – | – | – |
| 3.7 | > 20 | > 20 | <0.01 | OC(C1CCc2cccnc21)C1(c2cccc(OC(F)(F)F)c2)CCC1 (stereo not drawn) [Example 190, (syn)-6,7-dihydro-5H-cyclopenta[b]pyridin-7-yl{1-[3-(trifluoromethoxy)-phenyl]cyclobutyl}methanol] | – | – | – | – |
